From patent US10617755B2, “Combination therapy for the treatment of glioblastoma” (Genentech, Inc., priority 2013, dated 2020)

Experiments:
[1] = system: newly diagnosed glioblastoma; experiment: AvaGlio Phase III trial: bevacizumab plus temozolomide and radiotherapy versus placebo plus temozolomide and radiotherapy; format: in vivo, human; details: for OS hazard ratio (HR), multivariate Cox proportional hazard model: adjusted for prognostic covariates; for OS benefit, multivariate analysis (result in words): known prognostic covariates considered
Text: The AvaGlio trial evaluated the efficacy and safety of bevacizumab in combination temozolomide and radiotherapy for newly diagnosed glioblastoma. This study was designed as a prospective, randomized, double blind, placebo controlled Phase III evaluation of bevacizumab plus chemotherapy versus chemotherapy alone. To be eligible, patients must have had newly diagnosed glioblastoma with a tissue diagnosis that has been established following either a surgical resection or biopsy. By adding bevacizumab to chemotherapy and radiotherapy, the AvaGlio trial aimed to improve overall survival (OS) and progression-free survival (PFS) for this group of patients who had limited therapeutic options and faced a particularly poor prognosis. The primary objective was to compare OS and PFS of patients randomized to temozolomide (TMZ) and radiotherapy only or to temozolomide and radiotherapy plus bevacizumab.
This trial consisted of three phases (Concurrent, Maintenance, and Monotherapy) and two (2) treatment arms: TMZ and radiotherapy (RT) (Arm 1), and TMZ and RT plus bevacizumab (Arm 2). Patients were randomly assigned (1:1) to either arm.
Arm 1 (chemotherapy and radiotherapy alone): Eligible patients received 2 Gy RT 5 days a week for 6 weeks and 75 mg/m^2 TMZ orally daily for 6 weeks from the first day to the last day of RT in combination with 10 mg/kg placebo i.v. every 2 weeks. After a 4-week treatment break, eligible patients received 6 cycles of 150-200 mg/m^2 TMZ on days 1-5 of an every-4-week schedule in combination with 10 mg/kg placebo i.v. every 2 weeks. TMZ was administered orally starting with a 150 mg/m^2 dose that could be escalated. Placebo monotherapy (15 mg/kg every 3 weeks) was then continued until disease progression. Upon disease progression, patients were treated at the investigator's discretion.
Arm 2 (chemotherapy and radiotherapy plus bevacizumab): Eligible patients received 2 Gy RT 5 days a week for 6 weeks and 75 mg/m^2 TMZ orally daily for 6 weeks from the first day to the last day of RT in combination with 10 mg/kg bevacizumab i.v. every 2 weeks. After a 4-week treatment break, eligible patients received 6 cycles of 150-200 mg/m^2 TMZ on days 1-5 of an every-4-week schedule in combination with 10 mg/kg bevaciumab i.v. every 2 weeks. TMZ was administered orally starting with a 150 mg/m^2 dose that could be escalated. Bevaciazumab monotherapy (15 mg/kg every 3 weeks) was then continued until disease progression. Upon disease progression, patients were treated at the investigator's discretion.
The initial bevacizumab infusion was over 90 minutes, with subsequent infusions over 60 minutes and then 30 minutes, as tolerated. Bevacizumab was administered on the last day of RT and TMZ treatment, i.e., the day before the start of the TMZ treatment break.
Analyses of PFS were based on tumor assessments MacDonald Response Criteria (modified WHO criteria) using MRI of the brain and a neurological evalution as described in Macdonald et al. (J. Clin. Oncol. 8: 1277-80, 1990). Tumor assessments were performed at baseline, at the end of the 4-week treatment break, then every 8 weeks.
Next, we classified the 349 samples from the AvaGlio trial for which biomarkers could be evaluated into the gene expression subtypes defined by Phillips (Cancer Cell. 9(3): 157-173, 2006).
Samples were analyzed with the same Nanostring probe set used to derive the subtype-specific centroids and expression scores for the same genes were obtained using the same technology and probe sequences. Of the 349 samples, 10 samples from patients carrying mutation(s) in the isocitrate dehydrogenase 1 (IDH1) gene, known to be associated with good prognoses, were excluded from this analysis. Of the remaining 339 IDH1 wild-type samples, raw Nanostring counts were log 2 transformed and the mean expression and standard deviation across all samples was adjusted to the same reference values applied to the training set of Example 2 above. […]

[2] = system: newly diagnosed glioblastoma; experiment: as above; format: in vivo, human; details: known prognostic covariates considered

bevacizumab: recombinant humanized anti-VEGF monoclonal antibody generated according to Presta et al.; VL SEQ ID NO: 1, VH SEQ ID NO: 2
OS hazard ratio (HR), multivariate Cox proportional hazard model ([1]; PN subtype (Phillips), IDH1 wild-type, 95% CI 0.24-0.72, p=0.002): 0.42
extension of median OS in the treatment arm relative to the placebo arm ([1]; PN subtype (Phillips), n=99): about 4.9 months
PFS hazard ratio (HR), treatment arm relative to placebo arm ([1]; PN subtype (Phillips), n=99, 95% CI 0.37-0.9, p=0.015): 0.58
OS hazard ratio (HR), treatment arm relative to placebo arm ([1]; PN subtype (Phillips), n=99, 95% CI 0.4-0.99, p=0.043): 0.63
median OS in the treatment arm ([1]; PN subtype (Phillips), placebo arm 12.2 months): 17.1 months
OS benefit, multivariate analysis (result in words) ([1]; Phillips-classified PN subtype): statistically significant benefit in extending OS
OS benefit, multivariate analysis (result in words) ([1]; Phillips-classified non-PN subtype): do not show significant OS benefit
extension of median PFS in the treatment arm relative to the placebo arm ([1]; Phillips-classified proneural (PN) subtype, IDH1 wild-type, n=99): about 4.3 months
increase in median progression-free survival (PFS) compared to the placebo arm ([1]; all patients, treatment arm (RT/TMZ/bevacizumab) vs placebo arm): about 4.4 months
median overall survival (OS), difference between arms ([1]; all patients, treatment arm vs placebo arm): not significantly different between arms
OS hazard ratio (HR), multivariate Cox proportional hazard model ([1]; non-PN subtype (Phillips), 95% CI 0.76-1.39, p=0.863): 1.03
PFS and OS improvement (result in words) ([1]; patients having glioblastoma of the PN type): significant PFS and OS improvement
OS benefit, multivariate analysis (result in words) ([2]; TCGA-classified PN subtype): significant OS benefit
OS benefit, multivariate analysis (result in words) ([2]; TCGA-classified non-PN subtype): do not show significant OS benefit
